The source of these data is patent publication US5356926A, “3-alkyloxy-, aryloxy-, or arylalkyloxy-benzo [β]thiophene-2-carboxamides as inhibitors of cell adhesion” (Warner-Lambert Company, priority 1993, dated 1994).

In assay [1] the target is T1, 5-Lipoxygenase (Rattus norvegicus, UniProt P12527).
T1 sequence (P12527 1-673): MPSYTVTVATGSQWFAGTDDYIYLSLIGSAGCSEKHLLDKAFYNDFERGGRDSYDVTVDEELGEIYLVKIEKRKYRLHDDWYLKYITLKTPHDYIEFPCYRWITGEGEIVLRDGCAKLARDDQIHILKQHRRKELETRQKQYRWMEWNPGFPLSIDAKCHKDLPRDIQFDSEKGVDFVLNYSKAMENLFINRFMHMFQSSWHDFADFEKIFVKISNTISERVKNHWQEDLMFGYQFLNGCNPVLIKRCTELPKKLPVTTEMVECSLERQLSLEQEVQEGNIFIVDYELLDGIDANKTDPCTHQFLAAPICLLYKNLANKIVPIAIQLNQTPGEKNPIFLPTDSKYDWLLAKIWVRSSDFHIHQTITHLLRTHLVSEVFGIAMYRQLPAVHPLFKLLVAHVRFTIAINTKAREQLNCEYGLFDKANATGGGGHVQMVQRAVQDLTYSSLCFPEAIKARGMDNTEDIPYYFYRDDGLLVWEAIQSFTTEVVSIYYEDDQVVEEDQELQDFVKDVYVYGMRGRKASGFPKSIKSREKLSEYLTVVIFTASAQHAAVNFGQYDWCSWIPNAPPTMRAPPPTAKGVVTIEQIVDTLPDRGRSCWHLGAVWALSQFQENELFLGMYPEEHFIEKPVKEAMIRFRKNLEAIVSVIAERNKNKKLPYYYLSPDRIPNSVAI
As to the kind of experiment: ARBL: 5-lipoxygenase (LTB4) in RBL-1 cells. The class given is cell-based. More on the design: endogenous in cells; host or cells: RBL-1 (rat basophilic leukemia). To be noted: Table 4; for inhibition at 10 µM: RBL-1, class symbol. Here is the method: (§1) The testing methods used are described as follows:
(§2) The rat basophilic leukemia cell line (RBL-1) was obtained from the American Type Culture Collection (Rockville, Md.).
(§3) Radioimmunoassay (RIA) kits of LTB4 and PGF2α were obtained from Arnersham (Arlington Heights, IL) and Seragen (Boston, Mass.), respectively.
(§4) All tissue culture media were obtained from GIBCO (Grand Island, N.Y.).
(§5) RBL-1 cells are grown in suspension culture in Eagle's minimum essential medium supplemented with 12% fetal bovine serum at 37° C. in an incubator supplied with air-5% carbon dioxide. Cells are harvested by centrifugation. They are washed with cold phosphate-buffered saline, pH 7.4 (PBS; NaCl, 7.1 g; Na2 HPO4, 1.15 g; KH2 PO4, 0.2 g; and KCl, 0.2 g/L). Cells are finally suspended in PBS containing 1.0 mM calcium at a density of 2×10^6 cells/mL. Cells are incubated with and without test agent (in DMSO) (1% DMSO is without effect on arachidonic acid metabolism) for 10 minutes at room temperature. Calcium ionophore A23187 (5 μM) is added and cells are incubated for 7 minutes at 37° C. The reaction is stopped by chilling the tubes on ice for 10 minutes. Cells are separated by centrifugation and the supernatant is stored at -20° C. Aliquots (100 μL) are analyzed for LTB4 and PGF2α using radioimmunoassay kits as provided by the supplier.

In assay [2] the test system is Cyclooxygenase. Put plainly: ARBC: cyclooxygenase (PGF2α) in RBL-1 cells. Type of assay: cell-based, rat. The settings on record: Table 4, class symbol. Here is the method:
as §1, §2, §3, §4, §5

Assay [3] concerns the target T1, 5-Lipoxygenase. Put plainly: 5-lipoxygenase inhibition assay (20,000 xg supernatant of RBL cells). Type of assay: biochemical. Further details: activity contained in the 20,000 xg supernatant from cultured rat basophilic leukemia (RBL) cells; endogenous in cells; host or cells: RBL (rat basophilic leukemia) cells, 20,000 xg supernatant. As for the experimental part:
PROTOCOL FOR 5-LIPOXYGENASE INHIBITION ASSAY
Incubations contained 5% (v/v) RBL 20,000 xg supernatant in assay buffer (10 mM BES, 10 mM PIPES, 1 mM EDTA, 0.75 mM CaC12, 1 mMATP, 100 mMNaCl, pH 6.8). DMSO vehicle (2% v/v) with and without inhibitors is preincubated with the enzyme for 20 minutes at 37° C. before initiating the 5-lipoxygenase catalyzed reaction by adding […] [^14 C]arachidonic acid (55.8 mCi/mmol, New England Nuclear, Boston, Mass.) dissolved in 5 μL 0,028% (v/v) aqueous NH4 OH. After 20 minutes of additional incubation at 37° C., reactions are terminated by the addition of three volumes of methanol containing 100 μg triphenylphosphine. Samples are then analyzed by HPLC with radiometric detection for 5-1ipoxygenase reaction products.
All treatments are evaluated in duplicate and percent inhibition is computed by comparing the products formed in treatment incubations to the mean product formation in the vehicle control group.

The subject of assay [4] is human neutrophil adhesion to TNFα, IL-1α, and LPS-stimulated human umbilical vein endothelial cells. As to the kind of experiment: Inhibition of human neutrophil adhesion to stimulated HUVEC (51Cr-labeled neutrophils). The class given is cell-based. An excerpt: METHOD FOR DETERMINING THE INHIBITION OF HUMAN NEUTROPHIL ADHESION TO TNFα, IL-1α, AND LPS-STIMULATED HUMAN UMBILICAL VEIN ENDOTHELIAL CELLS BY 3-ALKYLOXY-, ARYLOXY-, OR ARYLALKYLOXY BENZO[b]THIOPHENE-2-CARBOXAMIDES
Neutrophils were isolated from anticoagulant-treated venous blood obtained from healthy human volunteers according to the method of Ferrante and Thong (J. Immunol. Methods 1978;24:389-93).
Second passage human umbilical vein endothelial cells (HUVEC) (Clonetics, San Diego, Calif.) were seeded into Falcon 24-well cell culture plates (Becton Dickinson, Lincoln Park, N.J.) at approximately 2×10^4 cells per well. The cells were grown to confluent monolayers in endothelial basal medium (EBM, Clonetics) supplemented with 5% fetal calf serum (Hyclone Laboratories, Logan, Utah), 10 ng/mL EGF, 1 μg/mL hydrocortisone, 0.4% bovine brain extract (Clonetics) in 5% CO2 at 37° C.
Neutrophils (30×10^6) were labeled for 60 minutes at 37° C. with 100 μCi Na^51 CrO4 (ICN Biomedicals, Costa Mesa, Calif.) in 2.0 mL Ca^2+ - and Mg^2+ -free Hanks' balanced salt solution (HBSS, GIBCO Laboratories, Grand Island, N.Y.). The cells were washed two times in HBSS and suspended in unsupplemented EBM.
Stimulation of HUVEC with tumor necrosis factor-α (TNFα) (Genzyme, Cambridge, Mass.) , interleukin (IL-1α) (Genzyrne) or E. coli 0111:B4 lipopolysaccharide (LPS) (Sigma) in the presence or absence of drug was initiated 4 hours prior to the addition of neutrophils. The suspension medium was unsupplemented EBM or supplemented EBM for studies with cytokines or LPS, respectively. […] Immediately prior to addition of ^51 Cr-labeled neutrophils to the HUVEC monolayers, the cultures were washed with 1 mL unsupplemented media to remove stimulus and/or drug. Neutrophils (5×10^5) were then added to the HUVEC in 0.5 mL unsupplemented media and incubated at 37° C. for 30 minutes. Nonadherent neutrophils were removed by aspiration. Following an additional wash, adherent neutrophils were lysed with 0.5 mL 1N NH4 OH overnight at 37° C. Lysates were collected and the radioactivity in each well was determined by gamma ray spectroscopy.

The subject of assay [5] is mycobacterium footpad edema. As to the kind of experiment: Inhibition of mycobacterium footpad edema (MFE). To be noted: rats. The class given is in vivo, rat. As for the experimental part:
METHOD FOR DETERMINING THE INHIBITION OF MYCOBACTERIUM FOOTPAD EDEMA BY […]HOXY-3-([…]HYLETHOXY) BENZO[b]THIOPHENE-2-CARBOXAMIDE-1-OXIDE Mycobacterium butyricum (5 mg/mL) was prepared by sonication in paraffin oil for 10 minutes in an ice bath. Footpad edema was induced on Day 0 by injecting 0.1 mL of the Mycobacterium mixture into the left hindpaw of lightly anesthetized rats. Swelling in the injected hindpaw was determined by mercury plethysmography on Days 1, 2, and 3. Groups of rats were treated with test compounds (suspended in 0.5% hydroxypropyl methylcellulose with 0.2% Tween 80 or vehicle 1 hour before Mycobacterium injection and on Days 1 and 2. Inhibition of swelling is determined by comparing the change in hindpaw volume in compound- and vehicle-treated rats.

The mark [6] stands for this setting: Table 4, class symbol, read-out: 5-LO % Inhibition at 30 μM.

Read-outs that look alike come from different tables or passages of the source. Where only a bound is given, the exact number is not on record here.

What is called inhibition is how much of the control response was suppressed. As for `CC(C)Oc1c(C(N)=O)sc2ccccc12` [Example 2, 3-(1-methylethoxy)benzo[b]thiophene-2-carboxamide], in assay [1], the inhibition at 10 µM was less than 40%. The “ARBC % Inhibition at 10 μM” value in assay [2] is “N (Less than 40% inhibition at 10 μM)”. The inhibition at 30 µM in assay [3] (setting [6]) is less than 4%. In addition, in assay [4] (Table 1, at 100 μM), the inhibition at 100 µM stood at 60%.

`COc1ccc2sc(C(N)=O)c(Oc3ccccc3)c2c1` [Example 9, 5-Methoxy-3-(phenoxy)benzo[b]thiophene-2-carboxamide]: the inhibition at 10 µM in assay [1] is less than 40%. Also, the “ARBC % Inhibition at 10 μM” value in assay [2] is recorded as “N (Less than 40% inhibition at 10 μM)”. In addition, the inhibition at 30 µM in assay [3] (setting [6]) is less than 4%. The compound further displayed an inhibition at 100 µM in assay [4] (Table 1, at 100 μM) of 59%.

As usually defined, the IC50 is the concentration that inhibits the measured activity by half. Read a low IC50 as higher potency. With `COc1ccc2sc(C(=O)Nc3ccc(C(=O)O)cc3)c(OC(C)C)c2c1` [Example 12, 4-[[[5-Methoxy-3-(1-methylethoxy)benzo[b]thien-2-yl]carbonyl]amino]benzoic acid], the IC50 in assay [1] (ARBL/ARBC IC50 (μM) or % inhibition at 10 μM, RBL-1 cells, A23187) is 36 µM; in assay [4] (Table 2, footnote b), 50 µM. Besides, the inhibition at 30 µM in assay [3] (Table 4, read-out: 5-LO % Inhibition at 30 μM) is 16%.

`COc1ccc2c(c1)c(OC(C)C)c(C(N)=O)[s+]2[O-]` (centres unmarked) [Example 28, 5-Methoxy-3-(1-methylethoxy)benzo[b]thiophene-2-carboxamide-1-oxide]: the ED40 in assay [5] (Mycobacterium, dosed 1 hour before injection and on Days 1 and 2, read-out: ID40 in mycobacterium footpad edema (MFE)) came to 10.9 mg/kg. In addition, in assay [5], the “activity in mycobacterium footpad edema (in words)” value is “active”. For the same compound, testing at 100 µM in assay [4] (Table 3, at 100 μM) gave an inhibition of 83%.
